Each compound was assayed against T1, cellular PARG (Homo sapiens, UniProt Q86W56) (assay: Nuclear PAR accumulation assay (immunofluorescence high-content imaging, MMS-treated HeLa cells)). Settings: 1 hour compound then MMS 50 μg/mL for an additional hour.
T1 construct: endogenous in cells; host or cells: HeLa
Format: cell-based
In short: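 HeLa cells pretreated with compound for 1 h at 37° C, then given 50 μg/mL MMS for another hour. After methanol fixation, PAR was immunostained with DAPI nuclear counterstain; per-nucleus intensity and percent PAR-positive cells were imaged at 20× (≥1,000 cells/well). IC50 from four-parameter logistic fit.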

T1 sequence (Q86W56 whole entry): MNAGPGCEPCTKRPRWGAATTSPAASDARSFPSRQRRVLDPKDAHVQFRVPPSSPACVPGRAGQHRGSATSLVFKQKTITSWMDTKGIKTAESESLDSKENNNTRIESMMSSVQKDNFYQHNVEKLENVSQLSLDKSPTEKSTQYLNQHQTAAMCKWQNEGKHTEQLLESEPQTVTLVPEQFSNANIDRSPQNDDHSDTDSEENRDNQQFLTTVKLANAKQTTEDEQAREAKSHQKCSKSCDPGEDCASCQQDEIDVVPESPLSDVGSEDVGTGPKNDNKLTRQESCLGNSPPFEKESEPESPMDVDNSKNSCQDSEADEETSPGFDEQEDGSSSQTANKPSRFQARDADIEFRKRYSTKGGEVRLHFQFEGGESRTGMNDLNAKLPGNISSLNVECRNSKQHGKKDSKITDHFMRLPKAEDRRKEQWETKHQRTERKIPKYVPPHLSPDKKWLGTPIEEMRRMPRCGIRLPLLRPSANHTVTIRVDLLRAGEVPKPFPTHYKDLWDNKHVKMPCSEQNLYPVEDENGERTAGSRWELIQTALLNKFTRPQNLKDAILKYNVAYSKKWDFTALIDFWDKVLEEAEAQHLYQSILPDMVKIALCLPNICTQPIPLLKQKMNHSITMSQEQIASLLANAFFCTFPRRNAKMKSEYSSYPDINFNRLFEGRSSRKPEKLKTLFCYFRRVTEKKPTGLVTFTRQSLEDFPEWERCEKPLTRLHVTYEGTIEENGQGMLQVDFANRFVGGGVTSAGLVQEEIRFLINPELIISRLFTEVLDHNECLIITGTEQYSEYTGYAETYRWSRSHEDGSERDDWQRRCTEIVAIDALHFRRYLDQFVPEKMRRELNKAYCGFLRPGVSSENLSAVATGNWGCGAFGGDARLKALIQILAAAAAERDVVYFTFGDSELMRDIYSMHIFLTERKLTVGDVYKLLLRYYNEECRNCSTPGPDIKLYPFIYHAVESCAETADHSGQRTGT

Row | Compound | IC50 [nM]
1 | C[C@@H]1CN=C2N(Cc3cccnc3CC#N)C(=O)c3cc(S(=O)(=O)NC4(C)CC4)ccc3N21 [Example 247, (R)-4-((2-(cyanomethyl)pyridin-3-yl)methyl)-1-methyl-N-(1-methylcyclopropyl)-5-oxo-1,2,4,5-tetrahydroimidazo[1,2-a]quinazoline-7-sulfonamide] | 100 to 1000
2 | Cn1cc(CN2C(=O)c3cc(S(=O)(=O)NC4(C)CC4)ccc3N3C2=NC[C@H]3C#C[C@H]2CCCN2)cn1 [Example 248, (R)-4-((1-methyl-1H-pyrazol-4-yl)methyl)-N-(1-methylcyclopropyl)-5-oxo-1-(((R)-pyrrolidin-2-yl)ethynyl)-1,2,4,5-tetrahydroimidazo[1,2-a]quinazoline-7-sulfonamide] | 100 to 1000
3 | C=Cc1ccc(CN2C(=O)c3cc(S(=O)(=O)NC4(C)CC4)ccc3N3C2=NC[C@H]3C)cn1 [Example 254, (R)-1-methyl-N-(1-methylcyclopropyl)-5-oxo-4-((6-vinylpyridin-3-yl)methyl)-1,2,4,5-tetrahydroimidazo[1,2-a]quinazoline-7-sulfonamide] | 100 to 1000
4 | CN1CCC[C@@H]1C#C[C@@H]1CN=C2N(Cc3cnn(C)c3)C(=O)c3cc(S(=O)(=O)NC4(C)CC4)ccc3N21 [Example 256, (R)-4-((1-methyl-1H-pyrazol-4-yl)methyl)-N-(1-methylcyclopropyl)-1-(((R)-1-methylpyrrolidin-2-yl)ethynyl)-5-oxo-1,2,4,5-tetrahydroimidazo[1,2-a]quinazoline-7-sulfonamide] | < 100
5 | CCN1C(=O)c2cc(S(=O)(=O)NC3(C)CC3)ccc2N2C1=NC[C@H]2C#Cc1nn(C)nc1C [Example 257, (R)-1-((2,5-dimethyl-2H-1,2,3-triazol-4-yl)ethynyl)-4-ethyl-N-(1-methylcyclopropyl)-5-oxo-1,2,4,5-tetrahydroimidazo[1,2-a]quinazoline-7-sulfonamide] | < 100
6 | [2H]C([2H])(c1cnn(C)c1)N1C(=O)c2cc(S(=O)(=O)NC3(C)CC3)ccc2N2C1=NC[C@H]2C#Cc1cnc(OC)nc1 [Example 259, (R)-1-((2-methoxypyrimidin-5-yl)ethynyl)-4-((1-methyl-1H-pyrazol-4-yl)methyl-d2)-N-(1-methylcyclopropyl)-5-oxo-1,2,4,5-tetrahydroimidazo[1,2-a]quinazoline-7-sulfonamide] | < 100
7 | [2H]C([2H])(c1cnn(C)c1)N1C(=O)c2cc(S(=O)(=O)NC3(C)CC3)ccc2N2C1=NC[C@H]2C#Cc1cccnn1 [Example 260, (R)-4-((1-methyl-1H-pyrazol-4-yl)methyl-d2)-N-(1-methylcyclopropyl)-5-oxo-1-(pyridazin-3-ylethynyl)-1,2,4,5-tetrahydroimidazo[1,2-a]quinazoline-7-sulfonamide] | < 100
8 | [2H]C([2H])(c1cnn(C)c1)N1C(=O)c2cc(S(=O)(=O)NC3(C)CC3)ccc2N2C1=NC[C@H]2C#Cc1cnc(C2CC2)nc1 [Example 261, (R)-1-((2-cyclopropylpyrimidin-5-yl)ethynyl)-4-((1-methyl-1H-pyrazol-4-yl)methyl-d2)-N-(1-methylcyclopropyl)-5-oxo-1,2,4,5-tetrahydroimidazo[1,2-a]quinazoline-7-sulfonamide] | < 100
9 | [2H]C([2H])(c1cnn(C)c1)N1C(=O)c2cc(S(=O)(=O)NC3(C)CC3)ccc2N2C1=NC[C@H]2C#Cc1cncnc1OC [Example 262, (R)-1-((4-methoxypyrimidin-5-yl)ethynyl)-4-((1-methyl-1H-pyrazol-4-yl)methyl-d2)-N-(1-methylcyclopropyl)-5-oxo-1,2,4,5-tetrahydroimidazo[1,2-a]quinazoline-7-sulfonamide] | < 100
10 | [2H]C([2H])(c1cnn(C)c1)N1C(=O)c2cc(S(=O)(=O)NC3(C)CC3)ccc2N2C1=NC[C@H]2C#Cc1cncnc1NC [Example 263, (R)-4-((1-methyl-1H-pyrazol-4-yl)methyl-d2)-1-((4-(methylamino)pyrimidin-5-yl)ethynyl)-N-(1-methylcyclopropyl)-5-oxo-1,2,4,5-tetrahydroimidazo[1,2-a]quinazoline-7-sulfonamide] | < 100
11 | CCN1C(=O)c2cc(S(=O)(=O)NC3(C)CC3)c(F)cc2N2C1=N[C@H]1CCC[C@H]12 [Example 264, (7aS,10aR)-6-ethyl-2-fluoro-N-(1-methylcyclopropyl)-5-oxo-6,7a,8,9,10,10a-hexahydro-5H-cyclopenta[4,5]imidazo[1,2-a]quinazoline-3-sulfonamide] | < 100
12 | CCN1C(=O)c2cc(S(=O)(=O)NC3(C)CC3)ccc2N2C1=NC[C@H]2C#Cc1cn(C)nc1C [Example 265, (R)-1-((1,3-dimethyl-1H-pyrazol-4-yl)ethynyl)-4-ethyl-N-(1-methylcyclopropyl)-5-oxo-1,2,4,5-tetrahydroimidazo[1,2-a]quinazoline-7-sulfonamide] | < 100
13 | [2H]C([2H])(c1cnn(C)c1)N1C(=O)c2cc(S(=O)(=O)NC3(C)CC3)ccc2N2C1=NC[C@H]2C#Cc1nn(C)nc1C [Example 266, (R)-1-((2,5-dimethyl-2H-1,2,3-triazol-4-yl)ethynyl)-4-((1-methyl-1H-pyrazol-4-yl)methyl-d2)-N-(1-methylcyclopropyl)-5-oxo-1,2,4,5-tetrahydroimidazo[1,2-a]quinazoline-7-sulfonamide] | < 100

Second part, the compound after the results:

Row | IC50 [nM] | Compound
14 | < 100 | [2H]C([2H])(c1cnn(C)c1)N1C(=O)c2cc(S(=O)(=O)NC3(C)CC3)ccc2N2C1=NC[C@H]2C#Cc1ncccc1C [Example 242, (R)-4-((1-methyl-1H-pyrazol-4-yl)methyl-d2)-N-(1-methylcyclopropyl)-1-((3-methylpyridin-2-yl)ethynyl)-5-oxo-1,2,4,5-tetrahydroimidazo[1,2-a]quinazoline-7-sulfonamide]
15 | < 100 | C[C@@H]1CN=C2N(Cc3cn(C)nc3CC#N)C(=O)c3cc(S(=O)(=O)NC4(C)CC4)ccc3N21 [Example 243, (R)-4-((3-(cyanomethyl)-1-methyl-1H-pyrazol-4-yl)methyl)-1-methyl-N-(1-methylcyclopropyl)-5-oxo-1,2,4,5-tetrahydroimidazo[1,2-a]quinazoline-7-sulfonamide]
16 | < 100 | [2H]C([2H])(c1cnn(C)c1)N1C(=O)c2cc(S(=O)(=O)NC3(C)CC3)ccc2N2C1=NC[C@H]2C#CC1(N(C)CCO)CC1 [Example 244, (R)-1-((1-((2-hydroxyethyl)(methyl)amino)cyclopropyl)ethynyl)-4-((1-methyl-1H-pyrazol-4-yl)methyl-d2)-N-(1-methylcyclopropyl)-5-oxo-1,2,4,5-tetrahydroimidazo[1,2-a]quinazoline-7-sulfonamide]
17 | < 100 | CCN1C(=O)c2cc(S(=O)(=O)NC3(C)CC3)ccc2N2C1=NC[C@H]2C#Cc1c(F)cnn1C [Example 245, (R)-4-ethyl-1-((4-fluoro-1-methyl-1H-pyrazol-5-yl)ethynyl)-N-(1-methylcyclopropyl)-5-oxo-1,2,4,5-tetrahydroimidazo[1,2-a]quinazoline-7-sulfonamide]
18 | < 100 | [2H]C([2H])(c1cnn(C)c1)N1C(=O)c2cc(S(=O)(=O)NC3(C)CC3)ccc2N2C1=NC[C@H]2C#Cc1cncnc1 [Example 246, (R)-4-((1-methyl-1H-pyrazol-4-yl)methyl-d2)-N-(1-methylcyclopropyl)-5-oxo-1-(pyrimidin-5-ylethynyl)-1,2,4,5-tetrahydroimidazo[1,2-a]quinazoline-7-sulfonamide]
19 | < 100 | [2H]C([2H])(c1cnn(C)c1)N1C(=O)c2cc(S(=O)(=O)NC3(C)CC3)ccc2N2C1=NC[C@H]2C#Cc1nccnc1OC [Example 249, (R)-1-((3-methoxypyrazin-2-yl)ethynyl)-4-((1-methyl-1H-pyrazol-4-yl)methyl-d2)-N-(1-methylcyclopropyl)-5-oxo-1,2,4,5-tetrahydroimidazo[1,2-a]quinazoline-7-sulfonamide]
20 | < 100 | [2H]C([2H])(c1cnn(C)c1)N1C(=O)c2cc(S(=O)(=O)NC3(C)CC3)ccc2N2C1=NC[C@H]2C#Cc1cccnc1N [Example 250, (R)-1-((2-aminopyridin-3-yl)ethynyl)-4-((1-methyl-1H-pyrazol-4-yl)methyl-d2)-N-(1-methylcyclopropyl)-5-oxo-1,2,4,5-tetrahydroimidazo[1,2-a]quinazoline-7-sulfonamide]
21 | < 100 | [2H]C([2H])(c1cnn(C)c1)N1C(=O)c2cc(S(=O)(=O)NC3(C)CC3)ccc2N2C1=NC[C@H]2C#Cc1ncc(C)nc1C [Example 251, (R)-1-((3,5-dimethylpyrazin-2-yl)ethynyl)-4-((1-methyl-1H-pyrazol-4-yl)methyl-d2)-N-(1-methylcyclopropyl)-5-oxo-1,2,4,5-tetrahydroimidazo[1,2-a]quinazoline-7-sulfonamide]
22 | < 100 | [2H]C([2H])(c1cnn(C)c1)N1C(=O)c2cc(S(=O)(=O)NC3(C)CC3)ccc2N2C1=NC[C@H]2C#Cc1cncc(N)c1 [Example 252, (R)-1-((5-aminopyridin-3-yl)ethynyl)-4-((1-methyl-1H-pyrazol-4-yl)methyl-d2)-N-(1-methylcyclopropyl)-5-oxo-1,2,4,5-tetrahydroimidazo[1,2-a]quinazoline-7-sulfonamide]
23 | < 100 | [2H]C([2H])(c1cnn(C)c1)N1C(=O)c2cc(S(=O)(=O)NC3(C)CC3)ccc2N2C1=NC[C@H]2C#Cc1cncc(N(C)C)c1 [Example 253, (R)-1-((5-(dimethylamino)pyridin-3-yl)ethynyl)-4-((1-methyl-1H-pyrazol-4-yl)methyl-d2)-N-(1-methylcyclopropyl)-5-oxo-1,2,4,5-tetrahydroimidazo[1,2-a]quinazoline-7-sulfonamide]
24 | < 100 | C=Cc1cc(CN2C(=O)c3cc(S(=O)(=O)NC4(C)CC4)ccc3N3C2=NC[C@H]3C)ccn1 [Example 255, (R)-1-methyl-N-(1-methylcyclopropyl)-5-oxo-4-((2-vinylpyridin-4-yl)methyl)-1,2,4,5-tetrahydroimidazo[1,2-a]quinazoline-7-sulfonamide]
